The source of these data is patent US4291164A, “Cephalosporin analogs and methods for production thereof” (Kyowa Hakko Kogyo Co., Ltd., priority 1978, dated 1981).

The conditions of assay [1]: J. Am. Chem. Soc. 96, 7584 (1974); J. Med. Chem. 20, 551; cited from earlier work.
Assay [2] concerns Staphylococcus aureus Smith. Kind of assay: Antibacterial activity, Heart Infusion Agar Dilution Method, Staphylococcus aureus Smith. Type of assay: cell-based. The following applies: pH 7.2, read-out: Minimum Inhibitory Concentration. The method, then: (§1) The antibacterial activity of the compounds obtained in the above Examples 24, 26, 28, 30, 32, 34, 36, 38, 40 and 41 are determined by Heart Infusion Agar Dilution Method (pH 7.2). Cefazolin is used as a reference.
Background: In agar dilution the substance is mixed into plates at graded concentrations.

Assay [3] concerns Klebsiella pneumoniae Y60. In words: Antibacterial activity, Heart Infusion Agar Dilution Method, Klebsiella pneumoniae Y60. It counts as cell-based. The following applies: pH 7.2, read-out: Minimum Inhibitory Concentration.
Assay [4] has as its system Escherichia coli NIHJC2. Kind of assay: Antibacterial activity, Heart Infusion Agar Dilution Method, Escherichia coli NIHJC2. Type of assay: cell-based. Here is the method: as §1
Assay [5] relates to Klebsiella pneumoniae 8045. Kind of assay: Antibacterial activity, Heart Infusion Agar Dilution Method, Klebsiella pneumoniae 8045. Type of assay: cell-based. The following applies: pH 7.2, read-out: Minimum Inhibitory Concentration. Here is the method: as §1
Assay [6] has as its system Staphylococcus aureus 209p. In words: Antibacterial activity, Heart Infusion Agar Dilution Method, Staphylococcus aureus 209p. Type of assay: cell-based. The following applies: pH 7.2, read-out: Minimum Inhibitory Concentration. The method, then: as §1
For assay [7], the system named is Serratia marcescens T55. In words: Antibacterial activity, Heart Infusion Agar Dilution Method, Serratia marcescens T55. It counts as cell-based. The following applies: pH 7.2, read-out: Minimum Inhibitory Concentration.
Assay [8] has as its system Pseudomonas aeruginosa 145. Kind of assay: Antibacterial activity, Heart Infusion Agar Dilution Method, Pseudomonas aeruginosa 145. It counts as cell-based. The following applies: Pseudomonas aeruginosa, 145, pH 7.2; read-out: Minimum Inhibitory Concentration. Here is the method:
as §1

Assay [9] has as its system Proteus mirabilis 1287. In words: Antibacterial activity, Heart Infusion Agar Dilution Method, Proteus mirabilis 1287. The following applies: pH 7.2, read-out: Minimum Inhibitory Concentration. Type of assay: cell-based. Here is the method:
as §1

The subject of assay [10] is Staphylococcus epidermidis. Kind of assay: Antibacterial activity, Heart Infusion Agar Dilution Method, Staphylococcus epidermidis. Type of assay: cell-based. Conditions: pH 7.2, read-out: Minimum Inhibitory Concentration. Here is the method:
as §1

Assay [11] concerns Proteus rettgeri KY4289. In words: Antibacterial activity, Heart Infusion Agar Dilution Method, Proteus rettgeri KY4289. It counts as cell-based. Conditions: Providencia rettgeri, pH 7.2, read-out: Minimum Inhibitory Concentration. The method, then: as §1
Assay [12] concerns Serratia marcescens T26. In words: Antibacterial activity, Heart Infusion Agar Dilution Method, Serratia marcescens T26. It counts as cell-based. Conditions: pH 7.2, read-out: Minimum Inhibitory Concentration.
Assay [13] has as its system Proteus morganii KY4298. In words: Antibacterial activity, Heart Infusion Agar Dilution Method, Proteus morganii KY4298. It counts as cell-based. The following applies: Morganella morganii, pH 7.2, read-out: Minimum Inhibitory Concentration. Here is the method: as §1
The test system of assay [14] is Proteus vulgaris 6897. In words: Antibacterial activity, Heart Infusion Agar Dilution Method, Proteus vulgaris 6897. It counts as cell-based. Conditions: pH 7.2, read-out: Minimum Inhibitory Concentration. The method, then:
as §1

For assay [15], the system named is Pseudomonas putida F264. In words: Antibacterial activity, Heart Infusion Agar Dilution Method, Pseudomonas putida F264. Type of assay: cell-based. The following applies: pH 7.2, read-out: Minimum Inhibitory Concentration.
Assay [16] concerns Microorganism. Kind of assay: Antimicrobial activity as shown in table (overall statement). It counts as cell-based. Conditions: as shown in table below. Here is the method:
as §1

Assay [17] relates to Escherichia coli Juhl. Kind of assay: Antibacterial activity, Heart Infusion Agar Dilution Method, Escherichia coli Juhl. Type of assay: cell-based.
In assay [18] the test system is Shigella sonnei KY4281. Kind of assay: Antibacterial activity, regular agar dilution, Shigella sonnei KY4281. Type of assay: cell-based. Conditions: pH 7.0. The method, then: (§2) The antibacterial activity of (±)-cis-2-carboxy-7-[2-(thiophene-2-yl)acetylamino]-1-azabicyclo[4,2,0]oct-2-en-8-one obtained in Example 21 above is set forth below. The activity is determined by the regular agar dilution at pH 7.0.

Assay [19] deals with Bacillus subtilis KY4273. In words: Antibacterial activity, regular agar dilution, Bacillus subtilis KY4273. The following applies: pH 7.0. Type of assay: cell-based. Here is the method:
as §2

Assay [20] has as its system Staphylococcus aureus KY4279. Kind of assay: Antibacterial activity, regular agar dilution, Staphylococcus aureus KY4279. Conditions: pH 7.0. It counts as cell-based. Here is the method: as §2
The test system of assay [21] is Erwinia aroides KY3241. Kind of assay: Antibacterial activity, regular agar dilution, Erwinia aroides KY3241. Type of assay: cell-based. The following applies: pH 7.0. The method, then:
as §2

Assay [22] deals with Klebsiella penumoniae KY4275. In words: Antibacterial activity, regular agar dilution, Klebsiella penumoniae KY4275. It counts as cell-based. Conditions: pH 7.0. The method, then: as §2
In assay [23] the test system is Vibrio percolans KY4174. Kind of assay: Antibacterial activity, regular agar dilution, Vibrio percolans KY4174. It counts as cell-based. The following applies: Comamonas terrigena, pH 7.0. Here is the method:
as §2

Assay [24] has as its system Escherichia coli KY4271. In words: Antibacterial activity, regular agar dilution, Escherichia coli KY4271. Type of assay: cell-based. Conditions: pH 7.0. The method, then:
as §2

Assay [25] relates to Salmonella typhosa KY4278. In words: Antibacterial activity, regular agar dilution, Salmonella typhosa KY4278. Type of assay: cell-based. Conditions: Salmonella enterica, pH 7. Here is the method:
as §2

Assay [26] relates to Proteus vulgaris KY4277. In words: Antibacterial activity, regular agar dilution, Proteus vulgaris KY4277. Type of assay: cell-based. The following applies: pH 7.0. Here is the method:
as §2

The mark [27] stands for this setting: Escherichia coli NIHJC2, Heart Infusion Agar Dilution, pH 7.2, read-out: Minimum Inhibitory Concentration.
Where [28] appears, read: Escherichia coli Juhl, Heart Infusion Agar Dilution, pH 7.2, read-out: Minimum Inhibitory Concentration.

Values after ≈ are worked out from the molar mass of the structure shown. Read-outs that look alike come from different tables or passages of the source. Some results are limits rather than exact numbers.

Take `CC(=O)OCC1=C(C(=O)O)N2C(=O)C(NC(=O)Cc3cccs3)C2CC1` (racemic) [(±)-1-carbacephalotin]: in assay [1], the “antibacterial activity (in words)” value is recorded as “having antibacterial activity”.
Turning to `CCN1CCN(C(=O)NC(C(=O)NC2C(=O)N3C(C(=O)O)=CCCC23)c2ccccc2)C(=O)C1=O` (stereo in doubt) [Example 28, (±)-cis-7-[(R)-2-phenyl-2-(4-ethyl-2,3-dioxo-1-piperazinylcarbonylamino)acetamido]-1-azabicyclo[4,2,0]oct-2-en-8-one-2-carboxylic acid], the MIC in assay [2] is 3.12 µg/mL (≈ 6.45 µM); in [3], 25 µg/mL (≈ 51.7 µM); in [4] (setting [27]), 1.56 µg/mL (≈ 3.23 µM); in assay [5], below 0.05 µg/mL; in assay [6], 0.78 µg/mL (≈ 1.61 µM); in assay [7], 3.12 µg/mL (≈ 6.45 µM). The MIC in assay [8] worked out at 100 µg/mL (≈ 207 µM); in assay [9] it was 1.56 µg/mL (≈ 3.23 µM); in assay [10], 3.12 µg/mL (≈ 6.45 µM); in [11] it was 6.25 µg/mL (≈ 12.9 µM); in assay [12], 25 µg/mL (≈ 51.7 µM); in assay [13] it was 3.12 µg/mL (≈ 6.45 µM). Also, the MIC in [14] is below 0.05 µg/mL; in assay [15], 6.25 µg/mL (≈ 12.9 µM); in assay [17] (setting [28]), 1.56 µg/mL (≈ 3.23 µM). Further, the “antimicrobial activity (in words)” value in assay [16] is “strong antimicrobial activity”.
In the case of `Cc1nnc(SCC2=C(C(=O)O)N3C(=O)[C@@H](NC(=O)Cn4cnnn4)[C@H]3SC2)s1` [Cefazolin, reference compound], the MIC is 0.4 µg/mL (≈ 0.88 µM) in assay [2]; 3.12 µg/mL (≈ 6.86 µM) in assay [3]; 1.56 µg/mL (≈ 3.43 µM) in assay [4] (Escherichia coli, NIHJC2, pH 7.2, read-out: Minimum Inhibitory Concentration); 0.78 µg/mL (≈ 1.72 µM) in assay [5]; below 0.05 µg/mL in assay [6]; 50 µg/mL (≈ 110 µM) in [7]. The MIC is above 100 µg/mL in [8]; 12.5 µg/mL (≈ 27.5 µM) in assay [9]; 0.78 µg/mL (≈ 1.72 µM) in [10]; 25 µg/mL (≈ 55 µM) in assay [11]; above 100 µg/mL in assay [12]; above 100 µg/mL in [13]. Besides, the MIC in [14] is 12.5 µg/mL (≈ 27.5 µM); in assay [15] it was above 100 µg/mL; in [17] (Escherichia coli, pH 7.2, read-out: Minimum Inhibitory Concentration), 1.56 µg/mL (≈ 3.43 µM).
With `O=C(Cc1cccs1)NC1C(=O)N2C(C(=O)O)=CCCC12` (stereo not drawn) [Example 21, (±)-cis-2-carboxy-7-[2-(thiophene-2-yl)acetylamino]-1-azabicyclo[4,2,0]oct-2-en-8-one], the MIC came out at 8 µg/mL (≈ 26.1 µM) in assay [18]; 2 µg/mL (≈ 6.53 µM) in assay [19]; 1 µg/mL (≈ 3.26 µM) in assay [20]; 1 µg/mL (≈ 3.26 µM) in assay [21]; 4 µg/mL (≈ 13.1 µM) in assay [22]; 2 µg/mL (≈ 6.53 µM) in [23]. In addition, the MIC in [24] came to 8 µg/mL (≈ 26.1 µM); in assay [25], 1 µg/mL (≈ 3.26 µM); in assay [26], 8 µg/mL (≈ 26.1 µM).
Turning to `N[C@@H](C(=O)N[C@@H]1C(=O)N2C(C(=O)O)=CCC[C@H]12)c1ccccc1` [Example 26 B isomer], the MIC in [2] turned out to be 6.25 µg/mL (≈ 19.8 µM); in [3], 3.12 µg/mL (≈ 9.89 µM); in [4] (setting [27]) it was 3.12 µg/mL (≈ 9.89 µM); in assay [5], 0.78 µg/mL (≈ 2.47 µM); in [6], 0.4 µg/mL (≈ 1.27 µM); in [7], 12.5 µg/mL (≈ 39.6 µM). For the same compound, the MIC came to 12.5 µg/mL (≈ 39.6 µM) in [9]; 3.12 µg/mL (≈ 9.89 µM) in assay [10]; 12.5 µg/mL (≈ 39.6 µM) in [11]; 50 µg/mL (≈ 159 µM) in [13]; 50 µg/mL (≈ 159 µM) in assay [14]; 100 µg/mL (≈ 317 µM) in [15]. Moreover, the MIC in [17] (setting [28]) was found to be 3.12 µg/mL (≈ 9.89 µM). Besides, the “antimicrobial activity (in words)” value in assay [16] is on record as “stronger antimicrobial activity than the more polar isomer”.
